Melting point and IC50 data for 19 molecules are collected here from US6534525B1, “2-substituted piperidine analogs and their use as subtype-selective NMDA receptor antagonists” (Warner-Lambert & Company, priority 1995, dated 2003).

The structures appear in SMILES notation. Where a name gives a salt, the structure may show the parent alone.

Data set [1] has as its target NMDA receptor subunits 1A/2C (NR1A+NR2C) (Rattus norvegicus, UniProt P35439+Q00961). The data set can be described thus: Electrophysiological assay at cloned NMDA receptor subunits expressed in Xenopus oocytes, 1A/2C. Format: cell-based. Particulars: cloned rat NMDA receptor in Xenopus oocytes, two-electrode voltage clamp, currents activated by glutamate and glycine; read-out: Subunits (IC50(μM)) 1A/2C. Here is the method:
(§1) Electrophysiological Assays at NMDA Receptor Subunits
(§2) The clones were transformed into appropriate host bacteria and plasmid preparations were made with conventional DNA purification techniques. A sample of each clone was linearized by restriction enzyme digestion and cRNA was synthesized with T3 RNA polymerase. The cRNA was diluted to 400 ng/μl and stored in 1 μl aliquots at −80° C. until injection.
(§3) The Xenopus oocyte Expression System
(§4) Follicle-enclosed oocytes were micro-injected with 1:1 mixtures of cRNA:NR1A+NR2A, 2B, 2C or 2D; injecting ˜2,5, or 20 ng of RNA encoding each receptor subunit. NR1A encoding cRNA was injected alone at ˜20 ng. Oocytes were stored in Barth's medium containing (in mM):NaCl, 88; KCl, 1; CaCl2, 0.41; Ca(NO3)2, 0.33; MgSO4, 0.82 NaHCO3, 2.4; HEPES 5, pH 7.4, with 0.1 mg/ml gentamicin sulphate. While oocytes were still surrounded by enveloping ovarian tissues the Barth's medium was supplemented with 0.1% bovine serum.
(§5) Electrical recordings were made using a conventional two-electrode voltage clamp (Dagan TEV-200) over periods ranging between 3-14 days following injection. […] Drugs were applied by bath perfusion. Using oocytes expressing different subunit combinations of NMDA receptor, NMDA currents were activated by co-application of glutamate and glycine. Inhibitory potency of the novel antagonists was assessed on responses elicited by fixed concentrations of glutamate and glycine, by measuring reductions in current induced by progressively increasing concentrations of antagonists.
(§6) Concentration-inhibition curves were fit with equation 1.
(§7) in which Icontrol is the current evoked by agonists alone, pIC50=−log IC50, IC50 is the concentration of antagonist that produces half maximal inhibition, and n is the slope factor. […] For incomplete curves analysis by fitting was unreliable and IC50 values were calculated by simple regression over linear portions of the curves (Origin: Microcal Software).
(In general: Two-electrode voltage clamp holds a large cell at a set potential and records current.)

The target of data set [2] is NMDA receptor subunits 1A/2A (NR1A+NR2A) (Rattus norvegicus, UniProt P35439+Q00959). The data set can be described thus: Electrophysiological assay at cloned NMDA receptor subunits expressed in Xenopus oocytes, 1A/2A. The data set is classed as cell-based. Particulars: cloned rat NMDA receptor in Xenopus oocytes, two-electrode voltage clamp, currents activated by glutamate and glycine; read-out: Subunits (IC50(μM)) 1A/2A. Here is the method:
as §1, §2, §3, §4, §5, §6, §7

The target of data set [3] is NMDA receptor subunits 1A/2B (NR1A+NR2B) (Rattus norvegicus, UniProt P35439+Q00960). The data set can be described thus: Electrophysiological assay at cloned NMDA receptor subunits expressed in Xenopus oocytes, 1A/2B. The data set is classed as cell-based. Particulars: cloned rat NMDA receptor in Xenopus oocytes, two-electrode voltage clamp, currents activated by glutamate and glycine; read-out: Subunits (IC50(μM)) 1A/2B. Here is the method: as §1, §2, §3, §4, §5, §6, §7
Chain of NMDA receptor subunits 1A/2B (NR1A+NR2B) (Q00960 27-1482, other chains not shown): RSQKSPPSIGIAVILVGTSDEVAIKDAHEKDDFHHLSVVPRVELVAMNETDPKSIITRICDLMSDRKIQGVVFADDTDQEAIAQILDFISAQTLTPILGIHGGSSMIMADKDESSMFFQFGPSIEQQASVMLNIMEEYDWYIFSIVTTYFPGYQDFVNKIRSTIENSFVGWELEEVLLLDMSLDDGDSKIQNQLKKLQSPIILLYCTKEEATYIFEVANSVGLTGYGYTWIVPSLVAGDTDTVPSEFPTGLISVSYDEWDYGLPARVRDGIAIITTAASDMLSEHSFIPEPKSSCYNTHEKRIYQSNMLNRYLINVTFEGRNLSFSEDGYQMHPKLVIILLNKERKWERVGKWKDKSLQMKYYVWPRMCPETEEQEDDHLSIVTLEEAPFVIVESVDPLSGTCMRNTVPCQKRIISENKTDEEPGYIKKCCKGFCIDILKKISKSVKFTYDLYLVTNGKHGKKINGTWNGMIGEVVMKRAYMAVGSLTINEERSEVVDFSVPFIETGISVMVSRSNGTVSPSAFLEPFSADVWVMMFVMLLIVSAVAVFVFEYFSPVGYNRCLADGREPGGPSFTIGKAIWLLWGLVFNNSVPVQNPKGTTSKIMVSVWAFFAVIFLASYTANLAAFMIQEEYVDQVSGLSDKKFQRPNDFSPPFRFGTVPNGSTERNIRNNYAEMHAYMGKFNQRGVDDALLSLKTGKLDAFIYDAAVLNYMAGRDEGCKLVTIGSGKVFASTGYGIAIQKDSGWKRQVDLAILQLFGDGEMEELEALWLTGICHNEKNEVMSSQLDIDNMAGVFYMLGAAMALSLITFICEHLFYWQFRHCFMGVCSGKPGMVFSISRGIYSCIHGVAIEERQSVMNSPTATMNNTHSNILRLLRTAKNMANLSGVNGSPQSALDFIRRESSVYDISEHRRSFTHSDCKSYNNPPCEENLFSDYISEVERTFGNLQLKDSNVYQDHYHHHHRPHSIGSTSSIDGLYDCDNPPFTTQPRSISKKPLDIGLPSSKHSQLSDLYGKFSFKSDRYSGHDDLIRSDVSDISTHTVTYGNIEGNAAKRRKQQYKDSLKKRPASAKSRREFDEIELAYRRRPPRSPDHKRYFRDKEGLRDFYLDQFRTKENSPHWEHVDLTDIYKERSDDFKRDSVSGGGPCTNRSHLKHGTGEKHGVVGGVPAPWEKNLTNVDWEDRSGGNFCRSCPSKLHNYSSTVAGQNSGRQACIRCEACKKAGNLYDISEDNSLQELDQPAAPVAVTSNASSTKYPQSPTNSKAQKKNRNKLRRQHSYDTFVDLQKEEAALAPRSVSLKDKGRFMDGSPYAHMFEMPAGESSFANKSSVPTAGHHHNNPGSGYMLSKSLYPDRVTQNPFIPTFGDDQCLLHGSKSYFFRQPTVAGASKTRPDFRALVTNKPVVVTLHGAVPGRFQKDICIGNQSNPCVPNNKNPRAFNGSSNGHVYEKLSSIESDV

Chain of NMDA receptor subunits 1A/2A (NR1A+NR2A) (Q00959 23-1464, other chains not shown): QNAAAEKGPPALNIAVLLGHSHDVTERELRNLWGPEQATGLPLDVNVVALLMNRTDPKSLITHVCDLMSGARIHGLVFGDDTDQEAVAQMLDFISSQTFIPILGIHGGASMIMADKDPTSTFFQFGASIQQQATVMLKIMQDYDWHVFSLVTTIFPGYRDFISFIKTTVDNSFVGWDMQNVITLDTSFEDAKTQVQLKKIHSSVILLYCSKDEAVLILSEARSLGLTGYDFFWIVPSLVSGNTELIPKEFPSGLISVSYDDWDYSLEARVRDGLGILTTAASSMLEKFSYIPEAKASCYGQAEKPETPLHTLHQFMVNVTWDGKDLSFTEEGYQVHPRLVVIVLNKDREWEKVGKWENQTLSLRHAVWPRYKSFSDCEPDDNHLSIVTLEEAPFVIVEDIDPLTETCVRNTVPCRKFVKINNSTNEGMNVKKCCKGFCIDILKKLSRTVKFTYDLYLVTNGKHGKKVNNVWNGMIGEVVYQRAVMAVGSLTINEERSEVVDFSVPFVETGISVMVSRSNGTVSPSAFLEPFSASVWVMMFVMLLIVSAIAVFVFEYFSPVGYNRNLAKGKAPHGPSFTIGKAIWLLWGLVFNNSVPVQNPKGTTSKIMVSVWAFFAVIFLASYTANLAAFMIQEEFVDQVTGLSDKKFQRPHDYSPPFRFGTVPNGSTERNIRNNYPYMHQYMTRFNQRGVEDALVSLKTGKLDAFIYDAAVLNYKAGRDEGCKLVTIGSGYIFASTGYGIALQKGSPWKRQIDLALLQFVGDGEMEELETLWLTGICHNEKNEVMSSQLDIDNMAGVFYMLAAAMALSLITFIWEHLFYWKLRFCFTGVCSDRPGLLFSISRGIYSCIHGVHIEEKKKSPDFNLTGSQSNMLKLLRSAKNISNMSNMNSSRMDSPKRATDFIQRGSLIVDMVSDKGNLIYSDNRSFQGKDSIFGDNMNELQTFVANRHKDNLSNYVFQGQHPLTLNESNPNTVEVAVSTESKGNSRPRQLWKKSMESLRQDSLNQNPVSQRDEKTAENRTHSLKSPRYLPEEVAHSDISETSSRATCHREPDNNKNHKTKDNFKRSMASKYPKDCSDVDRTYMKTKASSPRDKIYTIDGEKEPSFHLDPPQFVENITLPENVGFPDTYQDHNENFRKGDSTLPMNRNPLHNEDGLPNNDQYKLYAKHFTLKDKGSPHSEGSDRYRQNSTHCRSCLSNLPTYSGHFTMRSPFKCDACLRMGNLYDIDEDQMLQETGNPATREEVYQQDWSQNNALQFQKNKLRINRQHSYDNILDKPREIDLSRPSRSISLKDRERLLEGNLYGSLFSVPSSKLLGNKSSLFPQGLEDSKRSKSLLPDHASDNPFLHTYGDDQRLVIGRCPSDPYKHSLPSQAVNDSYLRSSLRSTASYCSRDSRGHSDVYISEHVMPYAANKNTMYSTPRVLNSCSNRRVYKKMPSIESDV
Chain of NMDA receptor subunits 1A/2C (NR1A+NR2C) (Q00961 20-1237, other chains not shown): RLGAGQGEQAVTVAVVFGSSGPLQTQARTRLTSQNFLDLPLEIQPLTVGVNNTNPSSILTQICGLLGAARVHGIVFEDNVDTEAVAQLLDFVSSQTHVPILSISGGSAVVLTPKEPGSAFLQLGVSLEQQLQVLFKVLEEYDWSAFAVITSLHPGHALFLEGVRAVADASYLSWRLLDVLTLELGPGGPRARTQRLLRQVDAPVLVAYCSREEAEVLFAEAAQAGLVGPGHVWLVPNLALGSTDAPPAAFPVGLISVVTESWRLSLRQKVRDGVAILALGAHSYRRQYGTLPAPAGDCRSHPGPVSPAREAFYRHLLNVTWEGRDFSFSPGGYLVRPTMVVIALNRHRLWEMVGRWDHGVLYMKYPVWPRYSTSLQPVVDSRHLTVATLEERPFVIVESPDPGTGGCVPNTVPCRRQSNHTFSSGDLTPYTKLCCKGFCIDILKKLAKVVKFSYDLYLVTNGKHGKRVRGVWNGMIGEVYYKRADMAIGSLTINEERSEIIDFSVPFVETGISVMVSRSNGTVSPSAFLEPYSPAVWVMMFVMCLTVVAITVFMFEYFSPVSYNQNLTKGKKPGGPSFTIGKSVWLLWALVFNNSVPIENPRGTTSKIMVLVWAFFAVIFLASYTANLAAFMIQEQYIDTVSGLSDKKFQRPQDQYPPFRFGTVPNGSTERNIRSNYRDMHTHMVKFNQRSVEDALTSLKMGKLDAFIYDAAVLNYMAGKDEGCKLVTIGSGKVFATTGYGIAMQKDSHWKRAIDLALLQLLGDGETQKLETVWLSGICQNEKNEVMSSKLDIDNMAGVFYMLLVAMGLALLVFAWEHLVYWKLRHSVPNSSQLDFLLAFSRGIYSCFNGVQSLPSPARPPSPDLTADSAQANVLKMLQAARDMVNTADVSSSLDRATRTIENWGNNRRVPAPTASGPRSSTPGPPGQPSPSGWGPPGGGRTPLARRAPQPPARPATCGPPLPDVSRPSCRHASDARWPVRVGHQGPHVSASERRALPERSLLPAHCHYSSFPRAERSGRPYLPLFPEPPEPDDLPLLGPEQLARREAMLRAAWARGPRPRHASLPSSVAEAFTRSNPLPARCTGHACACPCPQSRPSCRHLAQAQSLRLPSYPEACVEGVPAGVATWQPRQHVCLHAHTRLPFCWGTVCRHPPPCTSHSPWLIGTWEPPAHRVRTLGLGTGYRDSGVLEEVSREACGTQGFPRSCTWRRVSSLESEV

Usually melting point stands for the temperature, or range, at which the solid turns liquid. As to `Br.FC(F)(F)c1ccccc1OCCCCN1CCCCC1Cc1ccccc1` (stereo not drawn), the melting point was in the range of 136 to 140 °C. Still for that read-out and setting: the value for `Br.FC(F)(F)c1cccc(OCCCCN2CCCCC2Cc2ccccc2)c1` (stereo not drawn) was 143.5 to 144.5 °C; that for `Br.FC(F)(F)c1ccc(OCCCCN2CCCCC2Cc2ccccc2)cc1` (stereo not drawn) was 130 to 134 °C; that for `Br.Fc1cccc(OCCCCN2CCCCC2Cc2ccccc2)c1` (stereo not drawn) was 119 to 123 °C. On the same count and under the same terms, to `Fc1ccc(OCC[n+]2ccccc2Cc2ccc(Cl)cc2)cc1.[Br-]` belongs 179 to 180 °C; to `Br.c1ccc(CCN2CCCCC2Cc2ccccc2)cc1` (stereo not drawn), 162.5 to 164.5 °C. Still for that read-out and setting: to `Br.c1ccc(CCCCN2CCCCC2Cc2ccccc2)cc1` (stereo not drawn) belongs 133 to 135 °C. As to `Br.c1ccc(CC2CCCCN2CCCCOc2ccccc2)cc1` (stereo not drawn), the melting point is 100 to 103 °C. Still for that read-out and setting: the value for `c1ccc(CC2CCCCN2CCCCCOc2ccccc2)cc1` (stereo not drawn) (as salt: hydrobromid) [Example 20, 2-Benzyl-1-(5-phenoxypentyl)piperidine hydrobromide] was 137.5 to 139.5 °C; that for `O=[N+]([O-])c1ccc(OCCN2CCCCC2Cc2ccccc2)cc1` (stereo not drawn) (as salt: hydrobromid) [Example 21, 2-Benzyl-1-(2-(4-nitrophenoxy)ethyl)-piperidine hydrobromide] was 180 to 182 °C; that for `Nc1ccc(OCCN2CCCCC2Cc2ccccc2)cc1` (stereo not drawn) (as salt: hydrobromid) [Example 22, 1-(2-(4-Aminophenoxy)ethyl)-2-benzylpiperidine dihydrobromide] was 130 °C.

Regarding `c1ccc(CC2CCCCN2Cc2ccccc2)cc1` (stereo not drawn) [Example 2, 1,2-Dibenzylpiperidine, hydrobromide], the IC50 came to 33 µM in data set [1], 15 µM in data set [2] and 19 µM in data set [3]. For `Br.c1ccc(CCCN2CCCCC2Cc2ccccc2)cc1` (stereo not drawn) [Example 4, 2-Benzyl-1-(3-phenylpropyl)piperidine, hydrobromide], the melting point was 155 to 157 °C. The IC50 in data set [1] was determined as 125 µM. The IC50 in data set [2] came to 8 µM. Also, the IC50 in data set [3] amounted to 15 µM. On to `c1ccc(CC2CCCCN2CCOc2ccccc2)cc1` (stereo not drawn) [Example 6, 2-Benzyl-1-(2-phenoxyethyl)piperidine], for which the IC50 is 130 µM in data set [1], 17 µM in data set [2] and 25 µM in data set [3].

Regarding `c1ccc(CC2CCCCN2CCCCCOc2ccccc2)cc1` (stereo not drawn) [Example 20, 2-Benzyl-1-(5-phenoxypentyl)piperidine hydrobromide], the IC50 in data set [1] was 70 µM; in data set [2], 14 µM; in data set [3], 22 µM. In the same order, the values of `O=[N+]([O-])c1ccc(OCCN2CCCCC2Cc2ccccc2)cc1` (stereo not drawn) [Example 21, 2-Benzyl-1-(2-(4-nitrophenoxy)ethyl)-piperidine hydrobromide] are 240 µM, 60 µM and 35 µM. In the same order, the values of `Nc1ccc(OCCN2CCCCC2Cc2ccccc2)cc1` (stereo not drawn) [Example 22, 1-(2-(4-Aminophenoxy)ethyl)-2-benzylpiperidine dihydrobromide] are 180 µM, 80 µM and 6 µM.

For the molecule `Oc1ccc(OCCCCN2CCCCC2Cc2ccccc2)cc1` (stereo not drawn) [Example 28, 2-Benzyl-1-(4-(4-hydroxyphenoxy)butyl)piperidine hydrochloride], the IC50 in data set [1] turned out to be 110 µM; in data set [2], 15 µM; in data set [3] it was 10 µM.

For the molecule `O=c1[nH]c2ccc(OCCN3CCCCC3Cc3ccccc3)cc2[nH]1` (stereo not drawn) [Example 30, 2-Benzyl-1-(4-(2-oxobenzimidazol-5-oxy)ethyl)piperidine], the IC50 stood at 33 µM in data set [1], 7.5 µM in data set [2] and 5 µM in data set [3].
